Reference: PubChem BioAssay (NCI)
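Assay format: 96-well plates, 48-hour exposure. TGI marks complete inhibition of growth.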

Key:
Test in all cases: DTP human tumour cell line panel, 48 h
OVCAR-8 ovarian = test system: OVCAR-8 ovarian
OVCAR-4 ovarian = test system: OVCAR-4 ovarian
MALME-3M melanoma = test system: MALME-3M melanoma
UACC-257 melanoma = test system: UACC-257 melanoma
LOX IMVI melanoma = test system: LOX IMVI melanoma
SK-MEL-5 melanoma = test system: SK-MEL-5 melanoma
NCI/ADR-RES ovarian = test system: NCI/ADR-RES ovarian
A498 renal = test system: A498 renal
A549 NSCLC = test system: A549 NSCLC
SNB-19 CNS = test system: SNB-19 CNS
DU-145 prostate = test system: DU-145 prostate
ACHN renal = test system: ACHN renal
HCC-2998 colon = test system: HCC-2998 colon
HCT-116 colon = test system: HCT-116 colon
M14 melanoma = test system: M14 melanoma
MCF7 breast = test system: MCF7 breast
HCT-15 colon = test system: HCT-15 colon
K-562 leukemia = test system: K-562 leukemia
SF-268 CNS = test system: SF-268 CNS
BT-549 breast = test system: BT-549 breast
HOP-92 NSCLC = test system: HOP-92 NSCLC
RXF 393 renal = test system: RXF 393 renal
IGROV1 ovarian = test system: IGROV1 ovarian
MDA-MB-435 = test system: MDA-MB-435
SW-620 colon = test system: SW-620 colon
UO-31 renal = test system: UO-31 renal
NCI-H460 lung = test system: NCI-H460 lung
SF-539 CNS = test system: SF-539 CNS
SN12C renal = test system: SN12C renal
TK-10 renal = test system: TK-10 renal
HL-60(TB) leukemia = test system: HL-60(TB) leukemia
OVCAR-5 ovarian = test system: OVCAR-5 ovarian
NCI-H522 lung = test system: NCI-H522 lung
T-47D breast = test system: T-47D breast
NCI-H226 lung = test system: NCI-H226 lung
COLO 205 colon = test system: COLO 205 colon
HS 578T breast = test system: HS 578T breast
MOLT-4 leukemia = test system: MOLT-4 leukemia
CCRF-CEM leukemia = test system: CCRF-CEM leukemia
SNB-75 CNS = test system: SNB-75 CNS
SF-295 CNS = test system: SF-295 CNS
HOP-62 NSCLC = test system: HOP-62 NSCLC
MDA-N = test system: MDA-N
HT29 colon = test system: HT29 colon
MDA-MB-231 breast = test system: MDA-MB-231 breast
KM12 colon = test system: KM12 colon
CAKI-1 renal = test system: CAKI-1 renal
786-0 renal = test system: 786-0 renal
EKVX NSCLC = test system: EKVX NSCLC
UACC-62 melanoma = test system: UACC-62 melanoma
SK-OV-3 ovarian = test system: SK-OV-3 ovarian
U251 CNS = test system: U251 CNS
SK-MEL-28 melanoma = test system: SK-MEL-28 melanoma
NCI-H23 lung = test system: NCI-H23 lung
OVCAR-3 ovarian = test system: OVCAR-3 ovarian

Work on Cc1nn2c(C(=O)N/N=C/c3ccc([N+](=O)[O-])cc3)c(C)nc2s1 yielded a TGI (OVCAR-8 ovarian) greater than 100 µM, a TGI (OVCAR-4 ovarian) greater than 100 µM and a TGI (MALME-3M melanoma) greater than 100 µM. For the same molecule, the TGI (UACC-257 melanoma) was greater than 100 µM, the TGI (LOX IMVI melanoma) was greater than 100 µM and the TGI (SK-MEL-5 melanoma) was greater than 100 µM. The TGI (NCI/ADR-RES ovarian) was greater than 100 µM, the TGI (A498 renal) was greater than 100 µM and the TGI (A549 NSCLC) was greater than 100 µM. For the same molecule, the TGI (SNB-19 CNS) was greater than 100 µM, the TGI (DU-145 prostate) was greater than 100 µM and the TGI (ACHN renal) was greater than 100 µM. For the same molecule, the TGI (HCC-2998 colon) was greater than 100 µM, the TGI (HCT-116 colon) was greater than 100 µM and the TGI (M14 melanoma) was greater than 100 µM. The TGI (MCF7 breast) was greater than 100 µM, the TGI (HCT-15 colon) was greater than 100 µM and the TGI (K-562 leukemia) was greater than 100 µM. For the same molecule, the TGI (SF-268 CNS) was greater than 100 µM, the TGI (BT-549 breast) was greater than 100 µM and the TGI (HOP-92 NSCLC) was greater than 100 µM. It also gave a TGI (RXF 393 renal) greater than 100 µM, a TGI (IGROV1 ovarian) greater than 100 µM and a TGI (MDA-MB-435) greater than 100 µM. For the same molecule, the TGI (SW-620 colon) was greater than 100 µM, the TGI (UO-31 renal) was greater than 100 µM and the TGI (NCI-H460 lung) was greater than 100 µM. It also gave a TGI (SF-539 CNS) greater than 100 µM, a TGI (SN12C renal) greater than 100 µM and a TGI (TK-10 renal) greater than 100 µM. It also gave a TGI (HL-60(TB) leukemia) greater than 100 µM, a TGI (OVCAR-5 ovarian) greater than 100 µM and a TGI (NCI-H522 lung) greater than 100 µM. For the same molecule, the TGI (T-47D breast) was greater than 100 µM, the TGI (NCI-H226 lung) was greater than 100 µM and the TGI (COLO 205 colon) was greater than 100 µM. For the same molecule, the TGI (HS 578T breast) was greater than 100 µM, the TGI (MOLT-4 leukemia) was greater than 100 µM and the TGI (CCRF-CEM leukemia) was greater than 100 µM. It also gave a TGI (SNB-75 CNS) greater than 100 µM, a TGI (SF-295 CNS) greater than 100 µM and a TGI (HOP-62 NSCLC) greater than 100 µM. For the same molecule, the TGI (MDA-N) was greater than 100 µM, the TGI (HT29 colon) was greater than 100 µM and the TGI (MDA-MB-231 breast) was 49.4 µM. The TGI (KM12 colon) was greater than 100 µM, the TGI (CAKI-1 renal) was greater than 100 µM and the TGI (786-0 renal) was greater than 100 µM. For the same molecule, the TGI (EKVX NSCLC) was greater than 100 µM, the TGI (UACC-62 melanoma) was greater than 100 µM and the TGI (SK-OV-3 ovarian) was 87 µM. The TGI (U251 CNS) was 53.5 µM, the TGI (SK-MEL-28 melanoma) was greater than 100 µM and the TGI (NCI-H23 lung) was greater than 100 µM. It also gave a TGI (OVCAR-3 ovarian) greater than 100 µM.
